Literature values in US20150018665A1, “MOLECULAR AND CELLULAR IMAGING USING ENGINEERED HEMODYNAMIC RESPONSES” (Massachusetts Institute of Technology, priority 2013, published 2015).

Molecular target: nNOS (Homo sapiens, UniProt P29475)
Settings: blockade of nNOS

Chain of nNOS (P29475 whole entry, species assumed): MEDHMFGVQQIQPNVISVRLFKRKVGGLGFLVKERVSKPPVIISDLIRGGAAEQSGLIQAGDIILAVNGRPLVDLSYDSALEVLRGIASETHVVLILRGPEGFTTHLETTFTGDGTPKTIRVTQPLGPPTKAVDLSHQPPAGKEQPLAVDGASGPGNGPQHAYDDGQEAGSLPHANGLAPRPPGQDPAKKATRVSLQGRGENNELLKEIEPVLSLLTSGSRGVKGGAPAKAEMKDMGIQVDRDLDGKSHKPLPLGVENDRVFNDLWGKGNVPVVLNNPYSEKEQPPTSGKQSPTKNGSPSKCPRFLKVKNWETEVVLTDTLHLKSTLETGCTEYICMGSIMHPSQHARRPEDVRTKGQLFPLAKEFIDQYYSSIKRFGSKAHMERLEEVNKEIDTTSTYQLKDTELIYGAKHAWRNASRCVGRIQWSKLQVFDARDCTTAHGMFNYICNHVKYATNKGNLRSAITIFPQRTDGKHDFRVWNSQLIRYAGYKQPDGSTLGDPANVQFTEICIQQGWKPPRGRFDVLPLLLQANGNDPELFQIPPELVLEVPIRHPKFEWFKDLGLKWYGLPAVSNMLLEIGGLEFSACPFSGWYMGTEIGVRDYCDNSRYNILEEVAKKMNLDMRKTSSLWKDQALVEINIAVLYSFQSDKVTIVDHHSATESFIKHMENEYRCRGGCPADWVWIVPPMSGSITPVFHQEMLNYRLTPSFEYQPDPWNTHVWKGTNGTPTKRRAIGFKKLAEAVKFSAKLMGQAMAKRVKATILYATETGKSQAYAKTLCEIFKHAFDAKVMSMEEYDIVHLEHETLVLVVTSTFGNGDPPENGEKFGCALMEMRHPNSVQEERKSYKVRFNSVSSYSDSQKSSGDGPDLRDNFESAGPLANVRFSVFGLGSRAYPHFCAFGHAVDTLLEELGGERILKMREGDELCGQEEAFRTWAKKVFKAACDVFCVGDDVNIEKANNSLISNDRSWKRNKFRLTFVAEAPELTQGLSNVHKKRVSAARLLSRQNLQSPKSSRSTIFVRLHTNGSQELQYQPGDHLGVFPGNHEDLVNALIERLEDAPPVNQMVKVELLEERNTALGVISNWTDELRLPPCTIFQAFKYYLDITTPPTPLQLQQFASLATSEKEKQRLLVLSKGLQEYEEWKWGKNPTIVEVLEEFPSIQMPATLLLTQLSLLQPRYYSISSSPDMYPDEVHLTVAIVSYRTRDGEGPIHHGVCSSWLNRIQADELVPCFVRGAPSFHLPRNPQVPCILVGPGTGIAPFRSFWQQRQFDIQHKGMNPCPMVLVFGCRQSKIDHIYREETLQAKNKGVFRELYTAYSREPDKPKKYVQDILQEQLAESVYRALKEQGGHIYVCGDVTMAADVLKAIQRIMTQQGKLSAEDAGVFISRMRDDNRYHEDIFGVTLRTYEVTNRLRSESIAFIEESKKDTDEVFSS

## NC(=NCCC[C@H](N)C(=O)O)N[N+](=O)[O-] [L-nitroarginine]
  effect on fMRI-detectable responses to stimulation: abolishes or sharply reduces
